Experimental data published in patent publication US6737383B1, “Herbicidal oxadiazolidines” (priority 1999, dated 2004).

How the values were obtained:
morningglory = experiment: Test B pre/postemergence morningglory; format: in vivo, Ipomoea hederacea; conditions: for Plant response rating, Morningglory: scale of 0 to 10 where 0 is no effect and 10 is complete control
How it was run: (§1)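 Response is a visual 0-to-10 score relative to untreated plants, where 0 means no effect and 10 means complete control, taken twelve to sixteen days after application. Treatments went onto soil at planting and onto foliage of 1- to 4-leaf plants, using a surfactant-containing non-phytotoxic solvent.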

smallflower flatsedge = experiment: Test B flood test smallflower flatsedge; format: in vivo, Cyperus difformis
How it was run: (§2)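 Read-out is a visual response score from 0 (no effect) to 10 (complete control), assigned by comparison with untreated controls. Treatment was applied at the 2-leaf stage, and plants stayed in the greenhouse for twelve to sixteen days before scoring.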

rice = experiment: Test B flood test rice; format: in vivo, Oryza sativa
How it was run: as §2

wild oat = experiment: Test B pre/postemergence wild oat; format: in vivo, Avena fatua; conditions: for Plant response rating, Wild oats: scale of 0 to 10 where 0 is no effect and 10 is complete control
How it was run: as §1

pigweed = experiment: Test B pre/postemergence pigweed; format: in vivo, Amaranthus retroflexus; conditions: for Plant response rating, Redroot pigweed: scale of 0 to 10 where 0 is no effect and 10 is complete control
How it was run: as §1

soybean = experiment: Test B pre/postemergence soybean; format: in vivo, Glycine max; conditions: for Plant response rating, Soybean: scale of 0 to 10 where 0 is no effect and 10 is complete control
How it was run: as §1

crabgrass = experiment: Test B pre/postemergence crabgrass; format: in vivo, Digitaria sanguinalis
How it was run: as §1

corn = experiment: Test B pre/postemergence corn; format: in vivo, Zea mays
How it was run: as §1

velvetleaf = experiment: Test B pre/postemergence velvetleaf; format: in vivo, Abutilon theophrasti; conditions: for Plant response rating, Velvetleaf: scale of 0 to 10 where 0 is no effect and 10 is complete control
How it was run: as §1

purple nutsedge = experiment: Test B pre/postemergence purple nutsedge; format: in vivo, Cyperus rotundus; conditions: for Plant response rating, Nutsedge: scale of 0 to 10 where 0 is no effect and 10 is complete control
How it was run: as §1

sugar beet = experiment: Test B pre/postemergence sugar beet; format: in vivo, Beta vulgaris; conditions: for Plant response rating, Sugarbeets: scale of 0 to 10 where 0 is no effect and 10 is complete control
How it was run: as §1

rape = experiment: Test B pre/postemergence rape; format: in vivo, Brassica napus; conditions: for Plant response rating, Rape: scale of 0 to 10 where 0 is no effect and 10 is complete control
How it was run: as §1

giant foxtail = experiment: Test B pre/postemergence giant foxtail; format: in vivo, Setaria faberii
How it was run: as §1

wheat = experiment: Test B pre/postemergence wheat; format: in vivo, Triticum aestivum; conditions: for Plant response rating, Wheat: scale of 0 to 10 where 0 is no effect and 10 is complete control
How it was run: as §1

duck salad = experiment: Test B flood test duck salad; format: in vivo, Heteranthera limosa
How it was run: as §2

cocklebur = experiment: Test B pre/postemergence cocklebur; format: in vivo, Xanthium strumarium
How it was run: as §1

[1] = Postemergence, Rate 250 g/ha, scale 0 to 10
[2] = Preemergence, Rate 250 g/ha, scale 0 to 10, 0 is no effect, 10 is complete control
[3] = Preemergence, Rate 500 g/ha, scale 0 to 10, 0 is no effect, 10 is complete control
[4] = Rate 62 g/ha, Postemergence, scale 0 to 10, 0 no effect, 10 complete control
[5] = Rate 125 g/ha, Postemergence, scale 0 to 10, 0 is no effect, 10 is complete control
[6] = Rate 62 g/ha, flood test species, Pre-emergence, visual evaluation after twelve to sixteen days
[7] = Rate 125 g/ha, under heading Pre-emergence, flood test species, visual evaluation after twelve to sixteen days
[8] = Rate 250 g/ha, Pre-emergence (flood test species), scale 0 to 10, 0 is no effect, 10 is complete control
[9] = Rate 500 g/ha, Pre-emergence, flood test species, scale 0 to 10 (0 no effect, 10 complete control)
[10] = Postemergence, Rate 500 g/ha, scale of 0 to 10 where 0 is no effect and 10 is complete control
[11] = Preemergence, Rate 62 g/ha, scale of 0 to 10 where 0 is no effect and 10 is complete control
[12] = Preemergence, Rate 125 g/ha, scale of 0 to 10 where 0 is no effect and 10 is complete control

C=CC(OC)n1c(=O)on(C(=O)N(c2ccc(F)cc2)C(C)C)c1=O (stereo not shown) [Compound 452]
Morningglory plant response rating (morningglory; [1]): 2
Plant response rating, Morningglory (morningglory; Preemergence, Rate 62 g/ha): 0
Plant response rating, Morningglory (morningglory; Preemergence, Rate 125 g/ha): 0
Morningglory plant response rating (morningglory; [2]): 0
Morningglory plant response rating (morningglory; [3]): 0
Morningglory plant response rating (morningglory; [4]): 1
Morningglory plant response rating (morningglory; [5]): 2
Plant response rating, S. Flatsedge (0 to 10 scale, 0 is no effect, 10 is complete control) (smallflower flatsedge; [6]): 0
S. Flatsedge plant response rating (0 to 10 scale, 0 is no effect, 10 is complete control) (smallflower flatsedge; [7]): 0
S. Flatsedge plant response rating (smallflower flatsedge; [8]): 0
S. Flatsedge plant response rating (smallflower flatsedge; [9]): 0
Plant response rating, Rice (0 to 10 scale, 0 is no effect, 10 is complete control) (rice; [6]): 0
Rice plant response rating (0 to 10 scale, 0 is no effect, 10 is complete control) (rice; [7]): 0
Rice plant response rating (rice; [8]): 0
Rice plant response rating (rice; [9]): 0
Wild oats plant response rating (wild oat; [1]): 0
Plant response rating, Wild oats (wild oat; Preemergence, Rate 62 g/ha): 0
Plant response rating, Wild oats (wild oat; Preemergence, Rate 125 g/ha): 0
Wild oats plant response rating (wild oat; [2]): 0
Wild oats plant response rating (wild oat; [3]): 0
Wild oats plant response rating (wild oat; [4]): 0
Wild oats plant response rating (wild oat; [5]): 0
Redroot pigweed plant response rating (pigweed; [1]): 0
Plant response rating, Redroot pigweed (pigweed; Preemergence, Rate 62 g/ha): 0
Plant response rating, Redroot pigweed (pigweed; Preemergence, Rate 125 g/ha): 0
Redroot pigweed plant response rating (pigweed; [2]): 0
Redroot pigweed plant response rating (pigweed; [3]): 0
Redroot pigweed plant response rating (pigweed; [4]): 0
Redroot pigweed plant response rating (pigweed; [5]): 0
Soybean plant response rating (soybean; [1]): 1
Plant response rating, Soybean (soybean; Preemergence, Rate 62 g/ha): 0
Plant response rating, Soybean (soybean; Preemergence, Rate 125 g/ha): 0
Soybean plant response rating (soybean; [2]): 0
Soybean plant response rating (soybean; [3]): 0
Soybean plant response rating (soybean; [4]): 1
Soybean plant response rating (soybean; [5]): 1
Crabgrass plant response rating (crabgrass; [1]): 6
Crabgrass plant response rating (crabgrass; [10]): 6
Plant response rating, Crabgrass (crabgrass; [11]): 5
Plant response rating, Crabgrass (crabgrass; [12]): 5
Crabgrass plant response rating (crabgrass; [2]): 5
Crabgrass plant response rating (crabgrass; [3]): 5
Crabgrass plant response rating (crabgrass; [4]): 3
Corn plant response rating (corn; [1]): 0
Corn plant response rating (corn; [10]): 0
Plant response rating, Corn (corn; [11]): 0
Plant response rating, Corn (corn; [12]): 0
Corn plant response rating (corn; [2]): 0
Corn plant response rating (corn; [3]): 0
Corn plant response rating (corn; [4]): 0
Corn plant response rating (corn; [5]): 0
Velvetleaf plant response rating (velvetleaf; [1]): 0
Plant response rating, Velvetleaf (velvetleaf; Preemergence, Rate 62 g/ha): 0
Plant response rating, Velvetleaf (velvetleaf; Preemergence, Rate 125 g/ha): 0
Velvetleaf plant response rating (velvetleaf; [2]): 0
Velvetleaf plant response rating (velvetleaf; [3]): 0
Velvetleaf plant response rating (velvetleaf; [4]): 0
Velvetleaf plant response rating (velvetleaf; [5]): 0
Nutsedge plant response rating (purple nutsedge; [1]): 0
Plant response rating, Nutsedge (purple nutsedge; Preemergence, Rate 62 g/ha): 0
Plant response rating, Nutsedge (purple nutsedge; Preemergence, Rate 125 g/ha): 0
Nutsedge plant response rating (purple nutsedge; [2]): 0
Nutsedge plant response rating (purple nutsedge; [3]): 0
Nutsedge plant response rating (purple nutsedge; [4]): 0
Nutsedge plant response rating (purple nutsedge; [5]): 0
Sugarbeets plant response rating (sugar beet; [1]): 0
Plant response rating, Sugarbeets (sugar beet; Preemergence, Rate 62 g/ha): 0
Plant response rating, Sugarbeets (sugar beet; Preemergence, Rate 125 g/ha): 0
Sugarbeets plant response rating (sugar beet; [2]): 0
Sugarbeets plant response rating (sugar beet; [3]): 0
Sugarbeets plant response rating (sugar beet; [4]): 0
Sugarbeets plant response rating (sugar beet; [5]): 0
Rape plant response rating (rape; [1]): 0
Plant response rating, Rape (rape; Preemergence, Rate 62 g/ha): 0
Plant response rating, Rape (rape; Preemergence, Rate 125 g/ha): 0
Rape plant response rating (rape; [2]): 0
Rape plant response rating (rape; [3]): 0
Rape plant response rating (rape; [4]): 0
Rape plant response rating (rape; [5]): 0
Giant foxtail plant response rating (giant foxtail; [1]): 7
Giant foxtail plant response rating (giant foxtail; [10]): 7
Plant response rating, Giant foxtail (giant foxtail; [11]): 2
Plant response rating, Giant foxtail (giant foxtail; [12]): 3
Giant foxtail plant response rating (giant foxtail; [2]): 4
Giant foxtail plant response rating (giant foxtail; [3]): 7
Giant foxtail plant response rating (giant foxtail; [4]): 2
Giant foxtail plant response rating (giant foxtail; [5]): 4
Wheat plant response rating (wheat; [1]): 0
Plant response rating, Wheat (wheat; Preemergence, Rate 62 g/ha): 0
Plant response rating, Wheat (wheat; Preemergence, Rate 125 g/ha): 0
Wheat plant response rating (wheat; [2]): 0
Wheat plant response rating (wheat; [3]): 0
Wheat plant response rating (wheat; [4]): 0
Wheat plant response rating (wheat; [5]): 0
Plant response rating, Ducksalad (0 to 10 scale, 0 is no effect, 10 is complete control) (duck salad; [6]): 0
Ducksalad plant response rating (0 to 10 scale, 0 is no effect, 10 is complete control) (duck salad; [7]): 0
Ducksalad plant response rating (duck salad; [8]): 0
Ducksalad plant response rating (duck salad; [9]): 0
Cocklebur plant response rating (cocklebur; [1]): 0
Cocklebur plant response rating (cocklebur; [10]): 0
Plant response rating, Cocklebur (cocklebur; [11]): 0
Plant response rating, Cocklebur (cocklebur; [12]): 0
Cocklebur plant response rating (cocklebur; [2]): 0
Cocklebur plant response rating (cocklebur; [3]): 0
Cocklebur plant response rating (cocklebur; [4]): 0
Cocklebur plant response rating (cocklebur; [5]): 0
